# Results from ChEMBL document CHEMBL5120927, “LEGO-Lipophosphonoxins: A Novel Approach in Designing Membrane Targeting Antimicrobials” (J Med Chem, 2022).
# Columns and labels:
# Pseudomonas aeruginosa [1] = assay: Antibacterial activity against Pseudomonas aeruginosa ATCC 27853 = CCM 3955 assessed as inhibition of bacterial growth incubated for 24 hrs by microdilution assay; format: functional
# Enterococcus faecalis = assay: Antibacterial activity against Enterococcus faecalis ATCC 29212 = CCM 4224 assessed as inhibition of bacterial growth incubated for 24 hrs by microdilution assay; format: functional
# Enterococcus faecium = assay: Antibacterial activity against vancomycin resistant Enterococcus faecium 419/ANA assessed as reduction in microbial growth incubated for 24 hrs by microdilution assay; format: functional
# Staphylococcus aureus [2] = assay: Antibacterial activity against Staphylococcus aureus ATCC 29213 = CCM 4223 assessed as inhibition of bacterial growth incubated for 24 hrs by microdilution assay; format: functional
# [3] = Gradient chromatographic hydrophobicity index of the compound at pH 3.7 by HPLC analysis; format: ADME
# Staphylococcus aureus [4] = assay: Antibacterial activity against Staphylococcus aureus ATCC 29213 = CCM 4223 assessed as inhibition of bacterial growth incubated for 24 hrs in presence of BSA by microdilution assay; format: functional
# [5] = Hemolytic activity in human RBC assessed as haemoglobin release measured after 3 hr; format: toxicity, cell-based, Erythrocyte; conditions: red blood cells (erythrocytes)
# Escherichia coli [6] = assay: Antibacterial activity against Escherichia coli ATCC 25922 = CCM 3954 assessed as inhibition of bacterial growth incubated for 24 hrs in presence of BSA by microdilution assay; format: functional
# Staphylococcus aureus [7] = assay: Antibacterial activity against methicillin resistant Staphylococcus aureus 4591/A assessed as reduction in microbial growth incubated for 24 hrs by microdilution assay; format: functional
# Escherichia coli [8] = assay: Antibacterial activity against multidrug-resistant Escherichia coli CE5556 expressing CTX-M-15 assessed as reduction in microbial growth incubated for 24 hrs by microdilution assay; format: functional
# [9] = system: Staphylococcus epidermidis; assay: Antibacterial activity against Staphylococcus epidermidis CCM 7221 assessed as inhibition of bacterial growth incubated for 24 hrs by microdilution assay; format: functional
# Pseudomonas aeruginosa [10] = assay: Antibacterial activity against multidrug-resistant Pseudomonas aeruginosa assessed as reduction in microbial growth incubated for 24 hrs by microdilution assay; format: functional
# Escherichia coli [11] = assay: Antibacterial activity against Escherichia coli ATCC 25922 = CCM 3954 assessed as inhibition of bacterial growth incubated for 24 hrs by microdilution assay; format: functional
Compound,MIC (Pseudomonas aeruginosa [1]),MIC (Enterococcus faecalis),MIC (Enterococcus faecium),MIC (Staphylococcus aureus [2]),CHI [3],MIC (Staphylococcus aureus [4]),HC50 at 3 h [5],MIC (Escherichia coli [6]),MIC (Staphylococcus aureus [7]),MIC (Escherichia coli [8]),MIC [9],MIC (Pseudomonas aeruginosa [10]),MIC (Escherichia coli [11])
CCCC/C=C\CCOP(=O)(CCN(CCCNC(=N)N)CCCNC(=N)N)OCCCCCCOP(=O)(CCN(CCCNC(=N)N)CCCNC(=N)N)OCC/C=C\CCCC.Cl.Cl.Cl.Cl.Cl.Cl (stereo not drawn),16 µg/mL,8 µg/mL,32 µg/mL,1 µg/mL,333,0.2 µg/mL,169 µg/mL,0.5 µg/mL,1 µg/mL,2 µg/mL,1 µg/mL,16 µg/mL,4 µg/mL
CC/C=C\CCCOP(=O)(CCN(CCCN)CCCN)OCCCOP(=O)(CCN(CCCN)CCCN)OCCC/C=C\CC.Cl.Cl.Cl.Cl.Cl.Cl (stereo not drawn),> 128 µg/mL,> 128 µg/mL,> 128 µg/mL,128 µg/mL,25.1,> 128 µg/mL,> 200 µg/mL,> 128 µg/mL,64 µg/mL,> 128 µg/mL,32 µg/mL,> 128 µg/mL,> 128 µg/mL
CCCCCOP(=O)(CCN(CCCN)CCCN)OCCCCCCCCOP(=O)(CCN(CCCN)CCCN)OCCCCC.Cl.Cl.Cl.Cl.Cl.Cl (stereo not drawn),> 128 µg/mL,> 128 µg/mL,> 128 µg/mL,16 µg/mL,27.5,32 µg/mL,> 100 µg/mL,> 128 µg/mL,8 µg/mL,> 128 µg/mL,4 µg/mL,128 µg/mL,> 128 µg/mL
CCC/C=C\CCOP(=O)(CCN(CCCN)CCCN)OCCCCCCCCOP(=O)(CCN(CCCN)CCCN)OCC/C=C\CCC.Cl.Cl.Cl.Cl.Cl.Cl (stereo not drawn),128 µg/mL,64 µg/mL,> 128 µg/mL,8 µg/mL,32.8,8 µg/mL,> 200 µg/mL,64 µg/mL,4 µg/mL,16 µg/mL,2 µg/mL,128 µg/mL,1 µg/mL
Cl.Cl.Cl.Cl.Cl.Cl.NCCCN(CCCN)CCP(=O)(OCCCCCCOP(=O)(CCN(CCCN)CCCN)OCCc1ccccc1)OCCc1ccccc1 (stereo not drawn),> 128 µg/mL,> 128 µg/mL,> 128 µg/mL,64 µg/mL,11.9,> 128 µg/mL,> 200 µg/mL,> 128 µg/mL,64 µg/mL,> 128 µg/mL,64 µg/mL,> 128 µg/mL,> 128 µg/mL
Cl.Cl.Cl.Cl.Cl.Cl.NCCCN(CCCN)CCP(=O)(OCCCCCCCCCCOP(=O)(CCN(CCCN)CCCN)OCCc1ccccc1)OCCc1ccccc1 (stereo not drawn),64 µg/mL,32 µg/mL,128 µg/mL,2 µg/mL,31.1,4 µg/mL,> 500 µg/mL,32 µg/mL,2 µg/mL,64 µg/mL,1 µg/mL,64 µg/mL,16 µg/mL
CCCCCCCCOP(=O)(CCN(CCCN)CCCN)OCCCOP(=O)(CCN(CCCN)CCCN)OCCCCCCCC.Cl.Cl.Cl.Cl.Cl.Cl (stereo not drawn),16 µg/mL,8 µg/mL,64 µg/mL,2 µg/mL,35.5,2 µg/mL,> 500 µg/mL,4 µg/mL,2 µg/mL,4 µg/mL,2 µg/mL,8 µg/mL,2 µg/mL
CCCCOP(=O)(CCN(CCCN)CCCN)OCCCCCCCCOP(=O)(CCN(CCCN)CCCN)OCCCC.Cl.Cl.Cl.Cl.Cl.Cl (stereo not drawn),> 128 µg/mL,> 128 µg/mL,> 128 µg/mL,> 128 µg/mL,11,> 128 µg/mL,> 100 µg/mL,> 128 µg/mL,> 128 µg/mL,> 128 µg/mL,64 µg/mL,> 128 µg/mL,128 µg/mL
CCC/C=C\CCOP(=O)(CCN(CCCN)CCCN)OCCCCCOP(=O)(CCN(CCCN)CCCN)OCC/C=C\CCC.Cl.Cl.Cl.Cl.Cl.Cl (stereo not drawn),> 128 µg/mL,> 128 µg/mL,> 128 µg/mL,32 µg/mL,28.2,64 µg/mL,> 250 µg/mL,128 µg/mL,32 µg/mL,> 128 µg/mL,128 µg/mL,> 128 µg/mL,128 µg/mL
CCCCC/C=C\CCCOP(=O)(CCN(CCCN)CCCN)OCCCOP(=O)(CCN(CCCN)CCCN)OCCC/C=C\CCCCC.Cl.Cl.Cl.Cl.Cl.Cl (stereo not drawn),2 µg/mL,2 µg/mL,8 µg/mL,1 µg/mL,39.8,2 µg/mL,271 µg/mL,2 µg/mL,1 µg/mL,1 µg/mL,1 µg/mL,2 µg/mL,1 µg/mL
CCCCC/C=C\CCCOP(=O)(CCN(CCCN)CCCN)OCCCCCCOP(=O)(CCN(CCCN)CCCN)OCCC/C=C\CCCCC.Cl.Cl.Cl.Cl.Cl.Cl (stereo not drawn),2 µg/mL,1 µg/mL,2 µg/mL,0.5 µg/mL,40.6,1 µg/mL,43 µg/mL,1 µg/mL,0.5 µg/mL,1 µg/mL,0.5 µg/mL,2 µg/mL,0.5 µg/mL
CCCCCCCCCCOP(=O)(CCN(CCCN)CCCN)OCCCCCCOP(=O)(CCN(CCCN)CCCN)OCCCCCCCCCC.Cl.Cl.Cl.Cl.Cl.Cl (stereo not drawn),1 µg/mL,1 µg/mL,1 µg/mL,1 µg/mL,44,0.2 µg/mL,16 µg/mL,1 µg/mL,0.5 µg/mL,1 µg/mL,0.5 µg/mL,2 µg/mL,1 µg/mL
CCCCCCCCOP(=O)(CCN(CCCN)CCCN)OCCCCCCCCOP(=O)(CCN(CCCN)CCCN)OCCCCCCCC.Cl.Cl.Cl.Cl.Cl.Cl (stereo not drawn),2 µg/mL,1 µg/mL,4 µg/mL,0.5 µg/mL,38.7,0.25 µg/mL,683 µg/mL,0.5 µg/mL,5 µg/mL,1 µg/mL,3 µg/mL,2 µg/mL,1 µg/mL
Cl.Cl.Cl.Cl.Cl.Cl.NCCCN(CCCN)CCP(=O)(OCCCCCCCCCCCCOP(=O)(CCN(CCCN)CCCN)OCCc1ccccc1)OCCc1ccccc1 (stereo not drawn),8 µg/mL,4 µg/mL,32 µg/mL,1 µg/mL,34.8,2 µg/mL,358 µg/mL,8 µg/mL,4 µg/mL,16 µg/mL,0.5 µg/mL,8 µg/mL,4 µg/mL
CCCCCOP(=O)(CCN(CCCN)CCCN)OCCCCCCCCCCOP(=O)(CCN(CCCN)CCCN)OCCCCC.Cl.Cl.Cl.Cl.Cl.Cl (stereo not drawn),16 µg/mL,32 µg/mL,128 µg/mL,2 µg/mL,31.3,8 µg/mL,159 µg/mL,> 128 µg/mL,2 µg/mL,128 µg/mL,1 µg/mL,8 µg/mL,2 µg/mL
CCCCCCOP(=O)(CCN(CCCN)CCCN)OCCCCCCOP(=O)(CCN(CCCN)CCCN)OCCCCCC.Cl.Cl.Cl.Cl.Cl.Cl (stereo not drawn),> 128 µg/mL,> 128 µg/mL,> 128 µg/mL,8 µg/mL,28.7,16 µg/mL,634 µg/mL,64 µg/mL,16 µg/mL,128 µg/mL,4 µg/mL,> 128 µg/mL,32 µg/mL
